Measurements from ChEMBL document CHEMBL1201862, “PubChem BioAssay data set” (2004).
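Dose response: 5 concentrations. Exposure: 48 h. Format: 96-well plates. Endpoint: linear interpolation; highest concentration if not reached. The concentration for 50% growth inhibition is given as GI50.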 Activity calls are given as the source filed them. No stated cut-off is given here; in the data, active = GI50 up to about 1.1 µM and inactive = higher. Non-standard residues stand in square brackets, D forms with d. Residues, ends and D or L forms follow the SMILES beside them. ξ: configuration not given here. Pentanoyl(2-O,4-OH,5-Cl) = O=C(O)C(O)CC(O)CCl; Ile(3ξ) = CCC(C)[C@H](N)C(=O)O; NMeV = CN[C@H](C(=O)O)C(C)C; NMeA = CN[C@@H](C)C(=O)O; βAla = NCCC(=O)O

Experiments:
Assay in all cases: NCI anticancer screen, dose series, 48 h
[1] = tested on: HOP-62
[2] = tested on: MCF7
[3] = tested on: HCC 2998
[4] = tested on: NCI/ADR-RES
[5] = tested on: SN12C
[6] = tested on: CAKI-1
[7] = tested on: RXF 393
[8] = tested on: EKVX
[9] = tested on: UACC-257
[10] = tested on: K562
[11] = tested on: SK-MEL-28
[12] = tested on: A549
[13] = tested on: IGROV-1
[14] = tested on: SF-295
[15] = tested on: A498
[16] = tested on: OVCAR-3
[17] = tested on: NCI-H460
[18] = tested on: OVCAR-8
[19] = tested on: HL-60
[20] = tested on: DMS-273

| Compound | GI50 [1] | GI50 [2] | GI50 [3] | GI50 [4] | GI50 [5] | GI50 [6] | GI50 [7] | GI50 [8] | GI50 [9] | GI50 [10] | GI50 [11] | GI50 [12] | GI50 [13] | GI50 [14] | GI50 [15] | GI50 [16] | GI50 [17] | GI50 [18] | GI50 [19] | GI50 [20] |
| --- | --- | --- | --- | --- | --- | --- | --- | --- | --- | --- | --- | --- | --- | --- | --- | --- | --- | --- | --- | --- |
| Oc1c(Br)ccc2cccnc12 | 12.4 µM (inactive) | 0.443 µM (active) | 15.1 µM (inactive) | 1 µM (active) | 4.73 µM (inactive) | 5.94 µM (inactive) | 2.88 µM (inactive) | 3.27 µM (inactive) | 1.36 µM (inactive) | 1.06 µM (active) | 20.5 µM (inactive) | 3.14 µM (inactive) | 0.938 µM (active) | 0.834 µM (active) | 8.81 µM (inactive) | 1.32 µM (inactive) | 1.6 µM (inactive) | 2.25 µM (inactive) | 0.326 µM (active) | – |
| N#Cc1c(NC(=S)NC(=O)c2ccccc2)nc2c(c1-c1ccccc1)CCCC2 | 45.3 µM (inactive) | 58.9 µM (inactive) | – | 51.6 µM (inactive) | > 10 µM (inactive) | > 100 µM (inactive) | 17.8 µM (inactive) | – | > 100 µM (inactive) | > 100 µM (inactive) | 78.7 µM (inactive) | > 100 µM (inactive) | > 100 µM (inactive) | 34.9 µM (inactive) | – | > 100 µM (inactive) | > 100 µM (inactive) | 36.6 µM (inactive) | > 100 µM (inactive) | – |
| COc1ccc(C2c3cc4c(cc3OC(NCCO)C2C)OCO4)cc1 (stereo not drawn) | 29.8 µM (inactive) | 27.3 µM (inactive) | 26.5 µM (inactive) | – | 23.8 µM (inactive) | 23.5 µM (inactive) | 23.2 µM (inactive) | 32 µM (inactive) | 21 µM (inactive) | 22.5 µM (inactive) | 25.1 µM (inactive) | 21.7 µM (inactive) | 28.8 µM (inactive) | 27.9 µM (inactive) | 17.3 µM (inactive) | 17.8 µM (inactive) | 22.8 µM (inactive) | – | 22.6 µM (inactive) | – |
| Cc1ccc(C#CS(=O)(=O)C(F)(F)F)cc1 | > 100 µM (inactive) | > 100 µM (inactive) | > 100 µM (inactive) | > 100 µM (inactive) | > 100 µM (inactive) | – | > 100 µM (inactive) | > 100 µM (inactive) | > 100 µM (inactive) | > 100 µM (inactive) | > 100 µM (inactive) | > 100 µM (inactive) | > 100 µM (inactive) | > 31.6 µM (inactive) | > 100 µM (inactive) | > 100 µM (inactive) | > 100 µM (inactive) | > 100 µM (inactive) | > 31.6 µM (inactive) | > 100 µM (inactive) |
| Cc1c(Cl)c(=O)oc2cc(OCC(=O)c3ccccc3)ccc12 | 31.3 µM (inactive) | > 100 µM (inactive) | > 100 µM (inactive) | > 100 µM (inactive) | > 100 µM (inactive) | > 100 µM (inactive) | > 100 µM (inactive) | > 100 µM (inactive) | > 100 µM (inactive) | > 100 µM (inactive) | > 100 µM (inactive) | > 100 µM (inactive) | > 100 µM (inactive) | > 100 µM (inactive) | > 100 µM (inactive) | > 100 µM (inactive) | > 100 µM (inactive) | > 100 µM (inactive) | > 100 µM (inactive) | – |
| N#CC1=C(O)NC(O)=C(C#N)C1c1c(Cl)cccc1Cl | 27.7 µM (inactive) | – | 7.93 µM (inactive) | – | 31.8 µM (inactive) | 30.1 µM (inactive) | 7.8 µM (inactive) | 40.7 µM (inactive) | 35.2 µM (inactive) | > 100 µM (inactive) | 22.2 µM (inactive) | 27.3 µM (inactive) | 40.6 µM (inactive) | 34.8 µM (inactive) | 23.2 µM (inactive) | 32.9 µM (inactive) | 20.9 µM (inactive) | 20.2 µM (inactive) | 81.5 µM (inactive) | 26.2 µM (inactive) |
| CCC(C)[C@@H]1NC(=O)[C@@H]2CCCN2C(=O)C(CC(O)CCl)OC(=O)CCNC(=O)[C@H](C)N(C)C(=O)[C@H](C(C)C)N(C)C1=O (stereo partly drawn) (cyclo([Ile(3ξ)][NMeV][NMeA][βAla][Pentanoyl(2-O,4-OH,5-Cl)]P)) | > 68.2 µM (inactive) | > 39.8 µM (inactive) | – | > 100 µM (inactive) | > 100 µM (inactive) | > 100 µM (inactive) | > 100 µM (inactive) | > 100 µM (inactive) | 2.46 µM (inactive) | > 45.1 µM (inactive) | – | 47.6 µM (inactive) | > 100 µM (inactive) | 2.31 µM (inactive) | > 29.1 µM (inactive) | 17.9 µM (inactive) | > 31.4 µM (inactive) | > 100 µM (inactive) | 44.1 µM (inactive) | – |
| O=C1CCCCC2N(C(c3ccccc3)c3ccccc3)CC[C@@]12c1ccccc1.O=C1CCCC[C@H]2N(C(c3ccccc3)c3ccccc3)CC[C@@]12c1ccccc1 (stereo partly drawn) | – | – | – | – | > 10 µM (inactive) | 4.83 µM (inactive) | 4.32 µM (inactive) | 7.73 µM (inactive) | 6.14 µM (inactive) | 4.27 µM (inactive) | > 10 µM (inactive) | > 10 µM (inactive) | > 10 µM (inactive) | > 10 µM (inactive) | > 10 µM (inactive) | > 10 µM (inactive) | 9.55 µM (inactive) | > 10 µM (inactive) | 2.87 µM (inactive) | > 10 µM (inactive) |
| CCCCN(C(=O)c1ccccc1)C1CCC(=O)c2[nH]c3ccccc3c21 (stereo not drawn) | 40.4 µM (inactive) | 27.4 µM (inactive) | 34.4 µM (inactive) | 30.8 µM (inactive) | 57.1 µM (inactive) | 20.8 µM (inactive) | 25.8 µM (inactive) | 51.6 µM (inactive) | 54 µM (inactive) | 49.7 µM (inactive) | 90.2 µM (inactive) | 34.4 µM (inactive) | 46.3 µM (inactive) | 30.5 µM (inactive) | 29 µM (inactive) | 64.7 µM (inactive) | 35.4 µM (inactive) | 45.8 µM (inactive) | 8.75 µM (inactive) | – |
| CN(C)CCCNC(=O)N/N=C/c1ccccc1 | – | – | – | – | > 100 µM (inactive) | – | > 100 µM (inactive) | – | > 100 µM (inactive) | > 100 µM (inactive) | > 100 µM (inactive) | > 100 µM (inactive) | > 100 µM (inactive) | > 100 µM (inactive) | > 100 µM (inactive) | > 100 µM (inactive) | > 100 µM (inactive) | > 100 µM (inactive) | > 100 µM (inactive) | > 100 µM (inactive) |
| C=CCC12CC(=O)C=C1CCC1(C2)OCCO1 (stereo not drawn) | > 100 µM (inactive) | – | > 100 µM (inactive) | – | > 100 µM (inactive) | > 100 µM (inactive) | > 100 µM (inactive) | – | > 100 µM (inactive) | > 100 µM (inactive) | > 100 µM (inactive) | > 100 µM (inactive) | > 100 µM (inactive) | – | > 100 µM (inactive) | > 100 µM (inactive) | > 100 µM (inactive) | – | > 100 µM (inactive) | > 100 µM (inactive) |
| O=C1NC(=O)C(CCO)(c2ccccc2)C(=O)N1 | > 100 µM (inactive) | > 100 µM (inactive) | > 100 µM (inactive) | > 100 µM (inactive) | > 100 µM (inactive) | – | > 100 µM (inactive) | > 100 µM (inactive) | > 100 µM (inactive) | > 100 µM (inactive) | > 100 µM (inactive) | > 100 µM (inactive) | > 100 µM (inactive) | > 100 µM (inactive) | > 100 µM (inactive) | > 100 µM (inactive) | > 100 µM (inactive) | > 100 µM (inactive) | > 100 µM (inactive) | > 100 µM (inactive) |
| CN(C)c1ccc(C2CC(=O)CC(c3ccc(N(C)C)cc3)C23C(=O)NC(=O)NC3=O)cc1 (stereo not drawn) | 18.2 µM (inactive) | > 25 µM (inactive) | > 25 µM (inactive) | > 25 µM (inactive) | > 25 µM (inactive) | > 25 µM (inactive) | 15.8 µM (inactive) | > 25 µM (inactive) | > 25 µM (inactive) | 0.025 µM (active) | > 25 µM (inactive) | – | > 25 µM (inactive) | 19.8 µM (inactive) | – | > 25 µM (inactive) | > 25 µM (inactive) | 14.4 µM (inactive) | > 25 µM (inactive) | – |
| COC1C(O)C(n2ncc3c(SC)nc(SC)nc32)OC1C(O)CO (stereo not drawn) | > 100 µM (inactive) | > 100 µM (inactive) | > 100 µM (inactive) | > 100 µM (inactive) | > 100 µM (inactive) | – | > 100 µM (inactive) | > 100 µM (inactive) | > 37.6 µM (inactive) | > 100 µM (inactive) | > 100 µM (inactive) | > 100 µM (inactive) | > 100 µM (inactive) | > 100 µM (inactive) | > 100 µM (inactive) | > 100 µM (inactive) | > 100 µM (inactive) | > 100 µM (inactive) | > 100 µM (inactive) | > 100 µM (inactive) |
| Nc1ccccc1Sc1ccc(Cl)cc1 | 31.4 µM (inactive) | – | 28.1 µM (inactive) | – | 23.2 µM (inactive) | – | 13.5 µM (inactive) | 30.1 µM (inactive) | 23.2 µM (inactive) | 27.8 µM (inactive) | 28.9 µM (inactive) | 37.2 µM (inactive) | 52 µM (inactive) | 27.9 µM (inactive) | 54.2 µM (inactive) | 25.6 µM (inactive) | 24.3 µM (inactive) | 37.5 µM (inactive) | 18.7 µM (inactive) | 26.1 µM (inactive) |
| Nc1ccccc1S(=O)(=O)c1ccccc1 | > 100 µM (inactive) | – | > 100 µM (inactive) | – | > 100 µM (inactive) | – | > 100 µM (inactive) | > 100 µM (inactive) | > 100 µM (inactive) | > 100 µM (inactive) | > 100 µM (inactive) | > 100 µM (inactive) | > 100 µM (inactive) | > 100 µM (inactive) | > 100 µM (inactive) | > 100 µM (inactive) | > 100 µM (inactive) | > 100 µM (inactive) | > 100 µM (inactive) | > 100 µM (inactive) |
